Experimental data reported in patent publication US20090030079A1 (priority 2007, published 2009).
Where two headings read alike, the source gives them in different places.

Experiments:
[1] = Mn^2+; cited from earlier work
[2] = Cd^2+, cited from earlier work
[3] = Decorporation of Polonium-210: tissue distribution of IV administered Po-210 in rats; type: in vivo, Wistar-Han rats; details: for % Reduction of Po-210 vs Po-210 Control / effect on polonium-210 level (in words): oral 15 mg/kg x 5, day 6; for Po-210 dpm/gm for animal group: single IV Po-210 approx. 90 kBq, oral 15 mg/kg every 24 h x 5, sacrifice day 6
Experimental: The digested sample was diluted with distilled water to reduce the nitric acid to approximately 1 M. An aliquot of the resulting solution was added to Ultima Gold XR liquid scintillation cocktail (Packard BioScience, Meriden, Conn.), counted and corrected for possible quenching.

[4] = Fe^2+; cited from earlier work
[5] = Ni^2+, cited from earlier work
[6] = Decorporation of Cobalt-60: tissue distribution and excretion of IV administered Co-60 in rats; type: in vivo, Male Wistar-Han rats; details: single oral dose 15 mg/kg; for Co-60 Dose % for animal group: single IV Co-60 14 KBq, 48 hr post exposure
Experimental: Materials. Chloride stock solution of ^60Co as ^60CoCl2 was diluted with sterile saline solution to adjust to the desired activity and used for the IV dosing. Activity of the dosing solution was determined using automated Wallac 1480 (Perkin Elmer) gamma counter equipped with 3 inch NaI(TI) crystal shielded detector.
Animals. Male Wistar-Han rats were obtained from Charles River Breeding Laboratory (Raleigh, N.C.) with indwelling jugular vein cannula. Animals were provided food and water ad libitum during acclimatization. The light cycle was 12 hour light/12 hour dark and relative humidity and temperature maintained at 50±15% and 22±2° C. All animal use protocols were approved by the Institutional Animal Care and Use Committee at Battelle, Pacific Northwest Division and studies were performed according to the “Guide for the Care and Use of Laboratory Animals” (National Research Council, Washington D.C., 1996).
Dosing regimen. Animals were restricted from food overnight prior to exposure. At the time of exposure, groups of animals (N=6) received a single intravenous (IV) injection (0.2 mL) of ^60Co solution at 14.0±0.6 KBq dose in sterile saline via an indwelling jugular vein cannula. […] The actual doses delivered were calculated based on the individual animal weights (Table 3). One group of animals was dosed with the radionuclide without subsequent administration of the chelation material to serve as control group. Following dosing, animals were placed in Nalgene metabolism cages for separate collection of urine and feces. […] Animals were sacrificed 48 hr post radionuclide administration. At sacrifice, blood and tissues (liver, kidney, spleen, gastrointestinal tract, muscle, bone, bone marrow, and lung) were collected, weighed and counted for radioactivity using a Wallac 1480 gamma counter. Gamma count data were normalized to percent administered dose after adjusting the grams of tissue collected for total organ mass.
Data statistical evaluation. Each data group was subjected to Dixon's Q-test to evaluate for potential outliers. In this test Q parameter of 0.625 (N=6, 95% confidence level, a=0.05) was used (1). For each tissue, a preliminary F-test (95% confidence level, a=0.05) for the equality of variances of the control and each treatment group was performed using Excel software. If the calculated probability p value was less than 0.05, the variances were assumed to be not equal. Based on this information, “T-test: Two-Sample Assuming Unequal Variances” or “T-test: Two-Sample Assuming Equal Variances” (95% confidence level, a=0.05) was performed using Excel software. The calculated p-value less than 0.05 provides evidence to reject the null hypothesis of equal means. The obtained statistical parameters listed in Table 4 served as guidelines for data evaluation (Table 5; calculation assumes that total skeleton, blood, or muscle is approximately 7.3, 6, or 40% of the body weight of the animal, respectively; Co-60 in skeleton is calculated based on the femur data—R. P. Brown, M. D. Delp, S. L. Undstedt, L. R. Rhomberg, and R. P. Beliles, Physiological Parameter Values for Physiologically Based Pharmacokinetic Models. Toxicology and Industrial Health, 1997, 13(4): 407-484).

[7] = Cu^2+, cited from earlier work
[8] = Ag^1+; cited from earlier work
[9] = Co^2+, cited from earlier work
[10] = Cr^2+; cited from earlier work
[11] = Hg^2+, cited from earlier work
[12] = Zn^2+, cited from earlier work
[13] = Pb^2+, cited from earlier work

In the case of `NCCNCCNCCN` [Trientine, N,N′-bis (2-aminoethyl)-1,2-ethanediamine], the “binding stability constant (log K)” value [1] is given as 4.90, the “binding stability constant (log K)” value [2] is given as 10.6 and the “binding stability constant (log K)” value ([2]; listed as trientine) is given as “fairly strong”. For the same compound, the “% Reduction of Po-210 vs Po-210 Control” value ([3]; Blood) was 0%, the “Po-210 dpm/gm for animal group” value ([3]; Blood) was 33273 ± 7289 dpm/gm and the “Po-210 dpm/gm for animal group” value ([3]; Femur) was 22415 ± 2148 dpm/gm. For the same compound, the “% Reduction of Po-210 vs Po-210 Control” value ([3]; Kidney) was 0%, the “Po-210 dpm/gm for animal group” value ([3]; Kidney) was 187883 ± 15839 dpm/gm and the “% Reduction of Po-210 vs Po-210 Control” value ([3]; Liver) was 14%. For the same compound, the “effect on polonium-210 level (in words)” value ([3]; Liver) was “reduced”, the “Po-210 dpm/gm for animal group” value ([3]; Liver) was 120883 ± 21221 dpm/gm and the “% Reduction of Po-210 vs Po-210 Control” value ([3]; Lung) was 11%. For the same compound, the “Po-210 dpm/gm for animal group” value ([3]; Lung) was 74512 ± 22281 dpm/gm, the “Po-210 dpm/gm for animal group” value ([3]; Spleen) was 269303 ± 47082 dpm/gm and the “% Reduction of Po-210 vs Po-210 Control” value ([3]; femur) was 15%. The “effect on polonium-210 level (in words)” value ([3]; femur) was “reduced”, the “% Reduction of Po-210 vs Po-210 Control” value ([3]; spleen) was 36% and the “effect on polonium-210 level (in words)” value ([3]; spleen) was “reduced”. The “binding stability constant (log K)” value [4] was 7.76, the “binding stability constant (log K)” value [5] was 13.8 and the “binding stability constant (log K)” value ([5]; listed as trientine) was “very strongly”. For the same compound, the “Co-60 Dose % for animal group” value ([6]; Blood) was 0.18 ± 0.08%, the “% Reduction of Co-60 vs Co-60 Control” value ([6]; Blood, 48 hr) was −98% and the “Co-60 Dose % for animal group” value ([6]; Bone Marrow) was “Below detection”. For the same compound, the “Co-60 Dose % for animal group” value ([6]; Intestine) was 0.98 ± 0.23%, the “% Reduction of Co-60 vs Co-60 Control” value ([6]; Intestine, 48 hr) was 44% and the “Co-60 Dose % for animal group” value ([6]; Kidney) was 0.62 ± 0.04%. For the same compound, the “% Reduction of Co-60 vs Co-60 Control” value ([6]; Kidney, 48 hr) was 13%, the “Co-60 Dose % for animal group” value ([6]; Liver) was 2.00 ± 0.47% and the “% Reduction of Co-60 vs Co-60 Control” value ([6]; Liver, 48 hr) was 0%. The “Co-60 Dose % for animal group” value ([6]; Lung) was 0.13 ± 0.05%, the “% Reduction of Co-60 vs Co-60 Control” value ([6]; Lung, 48 hr) was 0% and the “Co-60 Dose % for animal group” value ([6]; Muscle) was 1.13 ± 0.24%. For the same compound, the “% Reduction of Co-60 vs Co-60 Control” value ([6]; Muscle, 48 hr) was 0%, the “Co-60 Dose % for animal group” value ([6]; Spleen) was 0.058 ± 0.013% and the “% Reduction of Co-60 vs Co-60 Control” value ([6]; Spleen, 48 hr) was 0%. The “Co-60 Dose % for animal group” value ([6]; Stomach) was 0.072 ± 0.012%, the “% Reduction of Co-60 vs Co-60 Control” value ([6]; Stomach, 48 hr) was 0% and the “Co-60 Dose % for animal group” value ([6]; Total Skeleton (from femur data)) was 0.41 ± 0.22%. For the same compound, the “% Reduction of Co-60 vs Co-60 Control” value ([6]; Total Skeleton, 48 hr) was 35%, the “effect on blood levels of Co-60” value ([6]; 48 hr) was “elevated” and the “effect on fecal elimination of Co-60” value ([6]; day 1 post exposure) was “decreased”. For the same compound, the “effect on urinary elimination of Co-60” value ([6]; day 1 post exposure) was “noticeably enhanced”, the “effect on total Co-60 excretion (urine and feces)” value ([6]; monitored 2 days, not statistically significant, 15 mg/kg) was “appeared to accelerate” and the “binding stability constant (log K)” value [7] was 20.05 (Cu^2+). For the same compound, the “binding stability constant (log K)” value ([7]; listed as trientine) was “very strongly”, the “binding stability constant (log K)” value [8] was 7.5 and the “binding stability constant (log K)” value [9] was 10.9. The “binding stability constant (log K)” value ([9]; listed as trientine) was “fairly strong”, the “binding stability constant (log K)” value [10] was 7.9 and the “binding stability constant (log K)” value [11] was 24.5. The “binding stability constant (log K)” value ([11]; listed as trientine) was “very strongly”, the “binding stability constant (log K)” value [12] was 12 and the “binding stability constant (log K)” value ([12]; listed as trientine) was “fairly strong”. For the same compound, the “binding stability constant (log K)” value [13] was 10.4 and the “binding stability constant (log K)” value ([13]; listed as trientine) was “fairly strong”.
